Legend:
Format in all cases: in vivo
[1] = Pharmacokinetics: serum concentrations of toltrazuril and toltrazuril sulfone in 2 day-old piglets (Example B)
Method: (§1) Protocol • Group 1: 10 piglets 2 days old were injected with once intramuscularly dose of toltrazuril C629 (Dose=20 mg toltrazuril per kg bodyweight—equivalent to 0.4 mL/Kg bodyweight) on SD0 • Group 2: 11 piglets 2 days old were injected with once intramuscularly dose of toltrazuril C629 (Dose=40 mg toltrazuril per kg bodyweight a—equivalent to 0.8 mL/kg bodyweight) on SD0 • Group 3: 9 piglets 2 days old were dosed orally with the standard commercial formulation of toltrazuril Cevazuril® (Dose=20 mg toltrazuril per kg bodyweight—equivalent to 0.4 mL/Kg bodyweight) on SD0. • Group 4: 8 piglets, left untreated.
(§2) All four (4) groups of piglets were injected on SD0 with iron injection (Gleptosil®) at the dose rate of 1 ml per piglet. 3 days after treatment (on SD3), the piglets were orally challenged with a characterised strain of Isospora suis.
(§3) The following study parameters were used to assess the efficacy of the test products: • Local and general tolerance (for Groups 1 and 2) • Occurrence of diarrhoea and faecal consistency • Oocyst excretion • Bodyweight development • Serum concentrations of toltrazuril and its metabolite toltrazuril sulfone (e.g ponazuril) in Group 1, 2 and 3.

Isospora suis = test: Anti-coccidial efficacy in piglets orally challenged with Isospora suis (Example B)
Method: as §1, §2, §3

[2] = Local and general tolerance of intramuscular toltrazuril in 2 day-old piglets (Example B); conditions: all tested doses (i.m. 20 and 40 mg/kg)
Method: as §1, §2, §3

[3] = Bodyweight development of piglets on a farm with known history of coccidiosis (Example A)
Method: (§4) This target animal safety and efficacy study was conducted in a farm with known history of cocciodiosis. The main objective was to study the safety and efficacy of intramuscular injection of toltrazuril in comparison to the standard oral application. • Group 1: 8 piglets 3 days old were injected by a single intramuscular dose of toltrazuril (Dose=20 mg toltrazuril per kg bodyweight equivalent to 0.4 mL/kg bodyweight) on SD0. • Group 2: 8 piglets 3 days old were injected by one intramuscular dose of toltrazuril (60 mg toltrazuril per kg bodyweight equivalent to 1.2 mL/Kg bodyweight) on SD0 • Group 3: 8 piglets 3 days old were dosed orally with the standard commercial formulation of toltrazuril Cevazuril® (Dose=20 mg toltrazuril per kg bodyweight equivalent to 0.4 mL/Kg bodyweight) on SD0 • Group 4: 12 piglets 3 days old, left untreated.
(§5) All four (4) groups of piglets were injected on SD0 with iron (Gleptosil®) at the dose rate of 1 ml per piglet.

[4] = Local and general tolerance of a single intramuscular injection of toltrazuril in 3-day old piglets (Example A)
Method: as §4, §5

[5] = G1, G2: single i.m. 20 or 40 mg/kg on SD0, Isospora suis challenge on SD3

Question: With Cc1cc(-n2c(=O)[nH]c(=O)n(C)c2=O)ccc1Oc1ccc(SC(F)(F)F)cc1 [toltrazuril] as the molecule, how does the Absorption ([1]; after intramuscular application, piglets) read?
Answer: Its Absorption is “well absorbed”.

Question: And the “Toltrazuril sulfone (ponazuril) kinetics, oral (G3) versus intramuscular (G1 and G2)” value ([1]; metabolite after toltrazuril 20 mg/kg oral vs 20 or 40 mg/kg i.m.)?
Answer: The value was “not statistically different”.

Question: And the “Serum level of toltrazuril sulfone” value ([1]; upon intramuscular injection of toltrazuril (FIGS. 4 and 5))?
Answer: Its value is “rapid and sustained”.

Question: What about the Fecal consistency (Isospora suis; [5]) of the same molecule?
Answer: Its Fecal consistency is “unchanged”.

Question: What about the Oocyst excretion (Isospora suis; [5]) of the same molecule?
Answer: Its Oocyst excretion is “No oocyst excretion was observed”.

Question: What about the “Weight gain versus control animals (G4)” value (Isospora suis; G1, G2: single i.m. 20 or 40 mg/kg, infected piglets) of the same molecule?
Answer: Its value is “gained more weight than the control animals”.

Question: What about the Tolerance [2] of the same molecule?
Answer: Its Tolerance is “well tolerated”.

Question: And the “Bodyweight gain versus control non treated piglets” value ([3]; intramuscularly treated piglets, at SD0+29 days)?
Answer: The value was “+2 kg”.

Question: What about the Bodyweight development ([3]; single i.m. 20 or 60 mg/kg, 3-day old piglets) of the same molecule?
Answer: The Bodyweight development was “normal”.

Question: What about the “Time to disappearance of local reaction post injection” value ([4]; piglets injected i.m. with 1.2 mL/kg bodyweight) of the same molecule?
Answer: Its value is “less than 1 week”.

Question: And the “Local reaction (oedema)” value ([4]; piglets injected i.m. with 1.2 mL/kg bodyweight (60 mg/kg))?
Answer: The value was “limited local reaction (Oedema) in some piglets”.

Question: What about the General tolerance ([4]; single intramuscular doses up to 60 mg/kg, 3-day old piglets) of the same molecule?
Answer: Its General tolerance is “well tolerated”.

Question: What about the Pain after injection ([4]; single intramuscular injection, 3-day old piglets) of the same molecule?
Answer: Its Pain after injection is “No pain”.
